Results from patent publication US9610369B2, “Compound suitable for detection of vesicular acetylcholine transporter” (HAMAMATSU PHOTONICS K.K., priority 2013, dated 2017).

Legend:
[1] = target: T1, vesicular acetylcholine transporters (Macaca mulatta, UniProt A0A1D5QJ59); assay: Localization of [^11C]HAPT in individual sites of the brain (PET); format: in vivo; conditions: brain of Rhesus monkey, 13 sites checked, FIG. 3
T1 construct: Rhesus monkey having a body weight of about 5 kg was immobilized to PET apparatus; from tissue; host or cells: brain of living Rhesus monkey (in vivo PET)
T1 sequence (A0A1D5QJ59 1-532): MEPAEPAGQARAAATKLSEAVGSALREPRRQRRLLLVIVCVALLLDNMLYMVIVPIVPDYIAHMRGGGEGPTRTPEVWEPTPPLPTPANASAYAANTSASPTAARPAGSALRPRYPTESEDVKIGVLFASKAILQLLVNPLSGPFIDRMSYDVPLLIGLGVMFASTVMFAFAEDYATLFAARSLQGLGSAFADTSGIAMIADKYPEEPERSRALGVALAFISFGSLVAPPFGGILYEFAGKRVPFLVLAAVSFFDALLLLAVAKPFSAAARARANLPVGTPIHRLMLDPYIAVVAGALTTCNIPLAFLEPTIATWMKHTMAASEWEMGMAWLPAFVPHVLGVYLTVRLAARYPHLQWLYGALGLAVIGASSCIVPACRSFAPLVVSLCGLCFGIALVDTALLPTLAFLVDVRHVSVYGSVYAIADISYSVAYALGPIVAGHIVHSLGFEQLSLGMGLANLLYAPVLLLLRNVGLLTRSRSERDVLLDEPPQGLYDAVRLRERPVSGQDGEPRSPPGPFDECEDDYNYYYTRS
Method: (§1) Rhesus monkey having a body weight of about 5 kg was immobilized to PET apparatus (trade name, SHR7700 manufactured by Hamamatsu Photonics KK) without anesthesia. After transmission was measured for absorption correction, [^11C]HAPT was intravenously administered and dynamic measurement was performed for 180 minutes.
Localization of [^11C]HAPT in individual sites of the brain of Rhesus monkey was checked. The results of the cases of using (S,S)HAPT-A and (R,R)HAPT-A are shown in FIG. 3 (A); whereas the results of the cases of using (S,S)HAPT-B and (R,R)HAPT-B are shown in FIG. 3 (B).

[2] = target: T1, vesicular acetylcholine transporters; assay: PET measurement of time-dependent change of [^11C]HAPT in brain ROIs; format: in vivo, Rhesus monkey (Macaca mulatta); conditions: brain of Rhesus monkey, FIG. 1; for binding to vesicular acetylcholine transporters: intravenous administration, dynamic PET 180 minutes
Method: as §1
In tomographic images obtained from a single individual by a nuclear magnetic resonance tomography apparatus (hereinafter, MRI), a region of interest (ROI) was determined and then, a time-dependent change of a labeled compound ([^11C]HAPT) in each ROI was obtained.

[3] = target: T1, vesicular acetylcholine transporters; assay: Inhibition experiment with vesicular transporter inhibitor vesamicol (PET); format: in vivo, Rhesus monkey; conditions: L-(−)-vesamicol 1 mg/kg intravenously 30 minutes before tracer, FIG. 4 and 5
Method: Inhibition experiments were performed by using a vesicular transporter inhibitor (vesamicol). Specific procedure employed is as follows.
The cephalic vein or saphenous vein was secured as the route for intravenous administration to test animals and the femoral artery or posterior tibial artery was secured as the route for arterial blood sampling.
Thirty minutes before administration of [^11C]HAPT, L-(−)-vesamicol was intravenously administered in a dose of 1 mg/kg.
The amount of radioactivity of [^11C]HAPT before administration was measured. A total amount of [^11C]HAPT was intravenously administered from an indwelling needle placed in a test animal over about 30 seconds. Simultaneously with initiation of administration, Emission measurement (121 minutes, 55 frames in total including: 10 seconds 6 frames, 30 seconds 6 frames, 1 minute 12 frames, […], 5 minutes 6 frames) was started for monitoring.

Row | binding to vesicular acetylcholine transporters with vesamicol compared to control [3] | time to reach an equilibrium state from initiation of measurement ([2]; PET) | Structure (SMILES) | localization in individual sites of the brain [1] | binding to vesicular acetylcholine transporters [2]
1 |  |  | Cc1cccc2c1C[C@@H](N1CCN(c3ccccc3N)CC1)[C@H](O)C2 [(R,R)[^11C]HAPT-A] | localized most significantly in the putamen | specifically bind to vesicular acetylcholine transporters
2 |  |  | Cc1cccc2c1C[C@@H](O)[C@H](N1CCN(c3ccccc3N)CC1)C2 [(R,R)[^11C]HAPT-B, (2R,3R)-3-(4-(2-aminophenyl)piperazin-1-yl)-8-[^11C]methyl-1,2,3,4-tetrahydronaphthalen-2-ol] | localized most significantly in the putamen | specifically binds to a vesicular acetylcholine transporter
3 | reduces | about 15 minutes | [11CH3]c1cccc2c1C[C@@H](O)[C@H](N1CCN(c3ccccc3N)CC1)C2 [(R,R)[^11C]HAPT-B, (2R,3R)-3-(4-(2-aminophenyl)piperazin-1-yl)-8-[^11C]methyl-1,2,3,4-tetrahydronaphthalen-2-ol] |  | specifically bind to vesicular acetylcholine transporters
4 |  |  | Cc1cccc2c1C[C@H](N1CCN(c3ccccc3N)CC1)[C@@H](O)C2 [(S,S)[^11C]HAPT-A] | localized most significantly in the putamen | specifically bind to vesicular acetylcholine transporters
5 |  |  | Cc1cccc2c1C[C@H](O)[C@@H](N1CCN(c3ccccc3N)CC1)C2 [(S,S)[^11C]HAPT-B] | non-specific binding in any site | does not bind to vesicular acetylcholine transporters
